Literature values in patent US20230404915A1, “RAPIDLY […] COMPOSTIONS AND METHODS (Nicotine)” (ORCOSA INC., priority 2020, published 2023).

Target: nicotinic acetylcholine receptors (nAChRs) (Homo sapiens, UniProt P17787+P43681)
Conditions: peak levels of nicotine after smoking a cigarette; brain α4β2 nAChRs

Sequence of nicotinic acetylcholine receptors (nAChRs) (P43681 29-627 limits assumed): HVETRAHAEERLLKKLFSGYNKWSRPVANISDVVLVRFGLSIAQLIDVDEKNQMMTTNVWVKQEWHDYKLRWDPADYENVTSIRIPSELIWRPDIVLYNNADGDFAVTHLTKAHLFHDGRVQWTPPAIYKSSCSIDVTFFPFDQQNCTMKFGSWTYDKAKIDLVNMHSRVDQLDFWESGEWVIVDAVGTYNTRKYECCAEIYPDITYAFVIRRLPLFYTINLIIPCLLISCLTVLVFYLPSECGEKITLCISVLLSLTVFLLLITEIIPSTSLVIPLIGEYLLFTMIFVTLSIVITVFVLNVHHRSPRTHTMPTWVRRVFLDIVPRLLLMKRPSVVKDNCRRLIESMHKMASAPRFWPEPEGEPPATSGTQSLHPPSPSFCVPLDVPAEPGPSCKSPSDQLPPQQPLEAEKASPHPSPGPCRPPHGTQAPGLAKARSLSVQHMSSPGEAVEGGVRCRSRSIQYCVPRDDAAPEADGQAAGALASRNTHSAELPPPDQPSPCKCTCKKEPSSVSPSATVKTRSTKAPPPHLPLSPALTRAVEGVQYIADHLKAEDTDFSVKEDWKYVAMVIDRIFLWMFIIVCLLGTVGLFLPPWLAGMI
Sequence of nicotinic acetylcholine receptors (nAChRs) (P17787 26-502): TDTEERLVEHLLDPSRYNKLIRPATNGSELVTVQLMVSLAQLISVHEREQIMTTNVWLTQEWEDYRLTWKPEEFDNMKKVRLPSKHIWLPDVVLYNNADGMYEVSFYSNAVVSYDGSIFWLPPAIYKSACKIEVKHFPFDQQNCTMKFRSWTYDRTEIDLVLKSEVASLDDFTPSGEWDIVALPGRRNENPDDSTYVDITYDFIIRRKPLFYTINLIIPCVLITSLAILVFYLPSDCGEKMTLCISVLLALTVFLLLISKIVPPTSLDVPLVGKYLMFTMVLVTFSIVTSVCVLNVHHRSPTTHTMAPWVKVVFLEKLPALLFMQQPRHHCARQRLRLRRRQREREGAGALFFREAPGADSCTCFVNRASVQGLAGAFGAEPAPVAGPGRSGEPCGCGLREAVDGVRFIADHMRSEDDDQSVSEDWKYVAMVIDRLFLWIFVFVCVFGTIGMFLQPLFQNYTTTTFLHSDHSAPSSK

CN1CCCC1c1cccnc1 (stereo not shown) [nicotine]
binding to the nicotinic acetylcholine receptors (nAChRs), saturation: around 90%
